Values quoted from earlier work as cited in PubChem BioAssay AID1259409 (Chemical Carcinogenesis Research Information System (CCRIS), 2018).
Several values for one entry are separate records, joined by “and”; a condition that tells them apart may be missing. Equal entries are not always repeated.

System: rodent chemically induced tumor inhibition, incidence and multiplicity
Assay: CCRIS tumor inhibitor studies

SMILES: C[C@]12CC[C@@H]3c4ccc(O)cc4CC[C@H]3[C@@H]1CC[C@@H]2O
- tumour outcome (control, treated, inhibition, significance) (Carcinogen: DIETHYLNITROSAMINE, 55-18-5, Dose [Inhibitor]: 0, 0.5-1 MG IN PELLET IMPLANTED 1/MONTH FOR 26 WK BEGINNING 30 D POST CARCINOGEN TREATMENT. DOSING BEGAN SAME DAY OF ORC, Route [Inhibitor]: SUBCUTANEOUS, Species: MOUSE, Strain/Sex: B6C3F1/MALE, Target Tissue: Type of Lesion: LIVER: TUMOR, Dose [Carcinogen]: 2.5 UG/G BW IN SALINE ONCE, Promoter: NONE): 19/30 (63%), 6/23 (26%), 59%, not significant
- tumour outcome (control, treated, inhibition, significance) (Carcinogen: N-ETHYL-N-NITROSOUREA, 759-73-9, Dose [Inhibitor]: 0, 0.1 MG PELLET IMPLANTED WITHIN 24 HR OF BIRTH AND REPLACED EVERY 2 MO (STUDY DURATION: 8 MO), Route [Inhibitor]: SUBCUTANEOUS IMPLANT, Species: RAT, Strain/Sex: WF X LE F1/FEMALE, Target Tissue: Type of Lesion: TRIGEMINAL NERVE: SCHWANNOMA, Dose [Carcinogen]: 40 MG/KG ONCE WITHIN 24 HR OF BIRTH, Promoter: NONE USED): 14/19 (74%), 12/20 (60%), 19%, not calculated
- outcome (Carcinogen: N-ETHYL-N-NITROSOUREA, 759-73-9, Dose [Inhibitor]: 0, 0.1 MG PELLET IMPLANTED WITHIN 24 HR OF BIRTH AND REPLACED EVERY 2 MO (STUDY DURATION: 8 MO), Route [Inhibitor]: SUBCUTANEOUS IMPLANT, Species: RAT, Strain/Sex: WF X LE F1/MALE, Target Tissue: Type of Lesion: KIDNEY: TUMOR, Dose [Carcinogen]: 40 MG/KG ONCE WITHIN 24 HR OF BIRTH, Promoter: NONE USED): 0/21 (0%), 7/22 (32%), -100%, not calculated
- tumour outcome (control, treated, inhibition, significance) (Carcinogen: N-ETHYL-N-NITROSOUREA, 759-73-9, Dose [Inhibitor]: 0, 0.1 MG PELLET IMPLANTED WITHIN 24 HR OF BIRTH AND REPLACED EVERY 2 MO (STUDY DURATION: 8 MO), Route [Inhibitor]: SUBCUTANEOUS IMPLANT, Species: RAT, Strain/Sex: WF X LE F1/MALE, Target Tissue: Type of Lesion: TRIGEMINAL NERVE: SCHWANNOMA, Dose [Carcinogen]: 40 MG/KG ONCE WITHIN 24 HR OF BIRTH, Promoter: NONE USED): 19/21 (91%), 13/22 (59%), 35%, p<0.05
- tumour outcome (control, treated, inhibition, significance) (Carcinogen: N-METHYL-N-NITROSOUREA, 684-93-5, Dose [Inhibitor]: 0, 2.5 MG IN CHOLESTEROL PELLET IMPLANTED 2 WK PRIOR TO CARCINOGEN DOSE AND REPLACED EVERY 4 WK (STUDY DURATION: 36 WK), Route [Inhibitor]: SUBCUTANEOUS IMPLANT, Species: RAT, Strain/Sex: F344/FEMALE, Target Tissue: Type of Lesion: MAMMARY GLAND: CARCINOMA, Dose [Carcinogen]: 50 MG/KG BW ONCE, Promoter: NONE USED): 10/20 (50%), 1/28 (4%), 92%, p<0.01
- tumour outcome (control, treated, inhibition, significance) (Carcinogen: N-METHYL-N-NITROSOUREA, 684-93-5, Dose [Inhibitor]: 0, 2.5 MG IN CHOLESTEROL PELLET IMPLANTED AT TIME OF CARCINOGEN DOSE AND REPLACED EVERY 4 WK (STUDY DURATION: 35 WK), Route [Inhibitor]: SUBCUTANEOUS IMPLANT, Species: RAT, Strain/Sex: F344/MALE, Target Tissue: Type of Lesion: MAMMARY GLAND: CARCINOMA, Dose [Carcinogen]: 50 MG/KG BW ONCE, Promoter: NONE USED): 10?20 (50%), 7/16 (44%), 12%, not significant
- tumour outcome (control, treated, inhibition, significance) (Carcinogen: N-METHYL-N-NITROSOUREA, 684-93-5, Dose [Inhibitor]: 0, 20 UG IN SILASTIC CAPSULES FOR 3 WK IMPLANTED 2 WK POST CARCINOGEN TREATMENT (STUDY DURATION: 10 MO), Route [Inhibitor]: SUBCUTANEOUS, Species: RAT, Strain/Sex: LEWIS/FEMALE, Target Tissue: Type of Lesion: MAMMARY GLAND: TUMOR, Dose [Carcinogen]: 50 MG/KG BW ONCE AT 7 WK OF AGE): 11/11 (100%), 8/11 (73%), 27%, not significant
- tumour outcome (control, treated, inhibition, significance) (Carcinogen: N-METHYL-N-NITROSOUREA, 684-93-5, Dose [Inhibitor]: 0, 30 MG IN SILASTIC CAPSULES FOR 3 WK IMPLANTED 2 WK POST CARCINOGEN TREATMENT (STUDY DURATION: 10 MO), Route [Inhibitor]: SUBCUTANEOUS, Species: RAT, Strain/Sex: LEWIS/FEMALE, Target Tissue: Type of Lesion: MAMMARY GLAND: TUMOR, Dose [Carcinogen]: 50 MG/KG BW ONCE AT 7 WK OF AGE): 11/11 (100%), 2/12 (17%), 83%, p<0.001
- tumour outcome (control, treated, inhibition, significance) (Carcinogen: N-METHYL-N-NITROSOUREA, 684-93-5, Dose [Inhibitor]: 0, 100 UG IN SILASTIC CAPSULES FOR 2 WK IMPLANTED 2 WK POST CARCINOGEN TREATMENT (STUDY DURATION: 10 MO), Route [Inhibitor]: SUBCUTANEOUS, Species: RAT, Strain/Sex: LEWIS/FEMALE, Target Tissue: Type of Lesion: MAMMARY GLAND: TUMOR, Dose [Carcinogen]: 50 MG/KG BW ONCE AT 7 WK OF AGE): 13/15 (87%), 7/16 (44%), 49%, p<0.05
- tumour outcome (control, treated, inhibition, significance) (Carcinogen: N-METHYL-N-NITROSOUREA, 684-93-5, Dose [Inhibitor]: 0, 100 UG IN SILASTIC CAPSULES FOR 3 WK IMPLANTED 2 WK POST CARCINOGEN TREATMENT (STUDY DURATION: 10 MO), Route [Inhibitor]: SUBCUTANEOUS, Species: RAT, Strain/Sex: LEWIS/FEMALE, Target Tissue: Type of Lesion: MAMMARY GLAND: TUMOR, Dose [Carcinogen]: 50 MG/KG BW ONCE AT 7 WK OF AGE): 11/11 (100%), 2/12 (17%), 83%, p<0.001
- tumour outcome (control, treated, inhibition, significance) (Carcinogen: N-METHYL-N-NITROSOUREA, 684-93-5, Dose [Inhibitor]: 0, 200 UG IN SILASTIC CAPSULES FOR 1 WK IMPLANTED 2 WK POST CARCINOGEN TREATMENT (STUDY DURATION: 10 MO), Route [Inhibitor]: SUBCUTANEOUS, Species: RAT, Strain/Sex: LEWIS/FEMALE, Target Tissue: Type of Lesion: MAMMARY GLAND: TUMOR, Dose [Carcinogen]: 50 MG/KG BW ONCE AT 7 WK OF AGE): 13/15 (87%), 3/15 (20%), 77%, p<0.01
- tumour outcome (control, treated, inhibition, significance) (Carcinogen: N-METHYL-N-NITROSOUREA, 684-93-5, Dose [Inhibitor]: 0, 200 UG IN SILASTIC CAPSULES FOR 3 WK IMPLANTED 2 WK POST CARCINOGEN TREATMENT (STUDY DURATION: 10 MO), Route [Inhibitor]: SUBCUTANEOUS, Species: RAT, Strain/Sex: LEWIS/FEMALE, Target Tissue: Type of Lesion: MAMMARY GLAND: TUMOR, Dose [Carcinogen]: 50 MG/KG BW ONCE AT 7 WK OF AGE): 11/11 (100%), 2/12 (17%), 83%, p<0.001

SMILES: C[C@]12CCC(=O)C(O)=C1CC[C@@H]1[C@@H]2CC[C@]2(C)C(=O)CC[C@@H]12
- tumour outcome (control, treated, inhibition, significance) (Carcinogen: METHYLNITROSOUREA, 684-93-5, Dose [Inhibitor]: 0, 6 MG/D 7 D/WK FOR DURATION OF STUDY BEGINNING 1 WK PRIOR TO CARCINOGEN DOSE (STUDY DURATION: 107 D), Route [Inhibitor]: GAVAGE, Species: RAT, Strain/Sex: SPRAGUE-DAWLEY/FEMALE, Target Tissue: Type of Lesion: MAMMARY GLAND: TUMOR, Dose [Carcinogen]: 50 MG/KG BW ONCE, Promoter: NONE USED): 100%, 95%, 5%, not significant
- tumour outcome (control, treated, inhibition, significance) (Carcinogen: METHYLNITROSOUREA, 684-93-5, Dose [Inhibitor]: 0, 15 MG/D 7 D/WK FOR DURATION OF STUDY BEGINNING 1 WK PRIOR TO CARCINOGEN DOSE (STUDY DURATION: 107 D), Route [Inhibitor]: GAVAGE, Species: RAT, Strain/Sex: SPRAGUE-DAWLEY/FEMALE, Target Tissue: Type of Lesion: MAMMARY GLAND: TUMOR, Dose [Carcinogen]: 50 MG/KG BW ONCE, Promoter: NONE USED): 100%, 100%, 0%, not significant

SMILES: COc1ccc2c(c1)CCC(c1ccccc1)=C2c1ccc(OCCN2CCCC2)cc1
- tumour outcome (control, treated, inhibition, significance) (Carcinogen: 7,12-DIMETHYLBENZ[A]ANTHRACENE, 57-97-6, Dose [Inhibitor]: 1 MG/KG 3/WK BEGINNING 2 D AFTER DMBA TREATMENT (STUDY DURATION: 5 MO), Route [Inhibitor]: SUBCUTANEOUS, Species: RAT, Strain/Sex: SPRAGUE-DAWLEY/FEMALE, Target Tissue: Type of Lesion: MAMMARY GLAND: ADENOCARCINOMA, FIBROADENOMA, Dose [Carcinogen]: 5 MG IN 0.5 ML CORN OIL AT 50 D OF AGE, Promoter: NONE USED): 56%, 10%, 82%, not calculated and 34%, 1%, 97%, not calculated
- tumour outcome (control, treated, inhibition, significance) (Carcinogen: 7,12-DIMETHYLBENZ[A]ANTHRACENE, 57-97-6, Dose [Inhibitor]: 1 MG/KG 3/WK BEGINNING 2 D AFTER DMBA TREATMENT (STUDY DURATION: 5 MO), Route [Inhibitor]: SUBCUTANEOUS, Species: RAT, Strain/Sex: SPRAGUE-DAWLEY/FEMALE, Target Tissue: Type of Lesion: MAMMARY GLAND: ADENOCARCINOMA, FIBROADENOMA, Dose [Carcinogen]: 10 MG IN 0.5 ML CORN OIL AT 50 D OF AGE, Promoter: NONE USED): 58%, 27%, 53%, not calculated and 38%, 10%, 74%, not calculated
- tumour outcome (control, treated, inhibition, significance) (Carcinogen: 7,12-DIMETHYLBENZ[A]ANTHRACENE, 57-97-6, Dose [Inhibitor]: 1 MG/KG 3/WK BEGINNING 15 D AFTER DMBA TREATMENT (STUDY DURATION: 5 MO), Route [Inhibitor]: SUBCUTANEOUS, Species: RAT, Strain/Sex: SPRAGUE-DAWLEY/FEMALE, Target Tissue: Type of Lesion: MAMMARY GLAND: ADENOCARCINOMA, FIBROADENOMA, Dose [Carcinogen]: 5 MG IN 0.5 ML CORN OIL AT 50 D OF AGE, Promoter: NONE USED): 56%, 22%, 61%, not calculated and 34%, 5%, 85%, not calculated
